Measured values from ChEMBL document CHEMBL4616720 (J Med Chem, 2020).

Experiments:
[1] = Selectivity index, ratio of IC50 for human MCF10A cells assessed as reduction in cell growth measured after 48 hrs by CCK8 assay to IC50 for human MCF7 cells assessed as reduction in cell growth measured after 48 hrs by CCK8; format: toxicity; conditions: MCF10A cells versus MCF7 cells, read-out: Ratio IC50
HCT-116 = test: Antitumor activity against human HCT116 cells xenografted in BALB/c nude mouse assessed as tumor growth inhibition at 25 mg/kg, ip administered every 3 days for 21 days and measured every second day for 21 days during compound dosing by digital caliper method relative to control; format: functional; conditions: HCT-116, ip, read-out: TGI
Histone deacetylase 1 = Histone deacetylase 1 (Homo sapiens, UniProt Q13547); test: Inhibition of HDAC1 (unknown origin) using Boc-Lys(Ac)-pNA as substrate preincubated for 20 mins followed by substrate addition and further incubated for 90 mins by fluorescence assay
Sequence of Histone deacetylase 1 (Q13547 whole entry): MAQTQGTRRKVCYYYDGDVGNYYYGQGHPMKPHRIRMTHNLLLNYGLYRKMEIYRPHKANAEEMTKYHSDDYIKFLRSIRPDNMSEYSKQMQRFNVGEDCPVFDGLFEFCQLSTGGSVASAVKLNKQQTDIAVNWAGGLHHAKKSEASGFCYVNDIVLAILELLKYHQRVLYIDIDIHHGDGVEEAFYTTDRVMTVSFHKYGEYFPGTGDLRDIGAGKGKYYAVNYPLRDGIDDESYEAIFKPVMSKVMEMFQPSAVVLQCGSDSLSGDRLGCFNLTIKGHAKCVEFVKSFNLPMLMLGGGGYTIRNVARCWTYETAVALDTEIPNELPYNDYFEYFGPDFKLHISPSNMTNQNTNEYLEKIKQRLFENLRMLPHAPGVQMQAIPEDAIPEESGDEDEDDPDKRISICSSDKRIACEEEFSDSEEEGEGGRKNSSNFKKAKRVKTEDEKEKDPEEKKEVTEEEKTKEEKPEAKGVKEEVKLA

A549 [2] = test: Induction of apoptosis in human A549 cells assessed as late apoptotic cells at 40 uM measured after 48 hrs by Annexin V-FITC/propidium iodide staining based FACSClibur flow cytometry analysis (reference value: 3.63 %); format: functional
[3] = Selectivity index, ratio of IC50 for human MCF10A cells assessed as reduction in cell growth measured after 48 hrs by CCK8 assay to IC50 for human HL60 cells assessed as reduction in cell growth measured after 48 hrs by CCK8; format: toxicity; conditions: MCF10A cells versus HL60 cells, read-out: Ratio IC50
[4] = AUC (0 to infinity) in Sprague-Dawley rat at 20 mg/kg, po measured up to 24 hrs by LC-MS/MS analysis; format: ADME, organism-based; design: dose 20 mg/kg, route oral, time infinity; conditions: in vivo
A549 [5] = test: Induction of apoptosis in human A549 cells assessed as late apoptotic cells at 40 uM measured after 24 hrs by Annexin V-FITC/propidium iodide staining based FACSClibur flow cytometry analysis (reference value: 2.32 %); format: functional
[6] = Toxicity in KM mouse assessed as clinical changes at <262 mg/kg, ip administered as single dose measured for 14 days; format: organism-based; conditions: in vivo, 336 h
[7] = molecular target: T1, Peptide deformylase, mitochondrial (Homo sapiens) (UniProt Q9HBH1); test: Inhibition of PDF in human A549 cells assessed as decrease in mtDNA encoded COX1 protein level measured after 48 hrs by Western blot analysis; format: cell-based
T1 sequence (whole entry): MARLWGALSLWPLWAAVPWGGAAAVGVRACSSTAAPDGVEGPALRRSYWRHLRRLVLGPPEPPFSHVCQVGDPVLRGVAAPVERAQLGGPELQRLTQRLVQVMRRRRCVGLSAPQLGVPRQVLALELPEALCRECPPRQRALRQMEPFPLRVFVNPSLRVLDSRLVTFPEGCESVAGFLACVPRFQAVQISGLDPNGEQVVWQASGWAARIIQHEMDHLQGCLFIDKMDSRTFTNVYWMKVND

[8] = Cmax in Sprague-Dawley rat at 20 mg/kg, po measured at 0.25 hrs by LC-MS/MS analysis; format: ADME, organism-based; design: dose 20 mg/kg, route oral; conditions: in vivo
[9] = molecular target: T1, Peptide deformylase, mitochondrial (Homo sapiens); test: Inhibition of PDF in human MCF7 cells assessed as decrease in mtDNA encoded COX1 protein level measured after 48 hrs by Western blot analysis; format: cell-based
[10] = Acute toxicity in iv dosed KM mouse administered as single dose measured for 14 days; format: organism-based; conditions: in vivo
A549 [11] = test: Induction of apoptosis in human A549 cells assessed as live cells at 40 uM measured after 24 hrs by Annexin V-FITC/propidium iodide staining based FACSClibur flow cytometry analysis (reference value: 97 %); format: functional
[12] = molecular target: T2, Peptide deformylase, mitochondrial (Homo sapiens, UniProt Q9HBH1); test: Inhibition of human PDF expressed in Escherichia coli BL21 pLysS using formyl-Met-Ala-His-Ala peptide as substrate measured after 1 hr by fluorescamine-based fluorescence assay
T2 sequence (Q9HBH1 whole entry): T1 sequence (whole entry)

[13] = Selectivity index, ratio of IC50 for human MCF10A cells assessed as reduction in cell growth measured after 48 hrs by CCK8 assay to IC50 for human HCT116 cells assessed as reduction in cell growth measured after 48 hrs by CCK8; format: toxicity; conditions: MCF10A cells versus HCT116 cells, read-out: Ratio IC50
[14] = molecular target: T3, Protein deacetylase HDAC6 (Homo sapiens) (UniProt Q9UBN7); test: Inhibition of HDAC6 (unknown origin) at 10 uM using Boc-Lys(Ac)-pNA as substrate preincubated for 20 mins followed by substrate addition and further incubated for 90 mins by fluorescence assay relative to control
T3 sequence (whole entry): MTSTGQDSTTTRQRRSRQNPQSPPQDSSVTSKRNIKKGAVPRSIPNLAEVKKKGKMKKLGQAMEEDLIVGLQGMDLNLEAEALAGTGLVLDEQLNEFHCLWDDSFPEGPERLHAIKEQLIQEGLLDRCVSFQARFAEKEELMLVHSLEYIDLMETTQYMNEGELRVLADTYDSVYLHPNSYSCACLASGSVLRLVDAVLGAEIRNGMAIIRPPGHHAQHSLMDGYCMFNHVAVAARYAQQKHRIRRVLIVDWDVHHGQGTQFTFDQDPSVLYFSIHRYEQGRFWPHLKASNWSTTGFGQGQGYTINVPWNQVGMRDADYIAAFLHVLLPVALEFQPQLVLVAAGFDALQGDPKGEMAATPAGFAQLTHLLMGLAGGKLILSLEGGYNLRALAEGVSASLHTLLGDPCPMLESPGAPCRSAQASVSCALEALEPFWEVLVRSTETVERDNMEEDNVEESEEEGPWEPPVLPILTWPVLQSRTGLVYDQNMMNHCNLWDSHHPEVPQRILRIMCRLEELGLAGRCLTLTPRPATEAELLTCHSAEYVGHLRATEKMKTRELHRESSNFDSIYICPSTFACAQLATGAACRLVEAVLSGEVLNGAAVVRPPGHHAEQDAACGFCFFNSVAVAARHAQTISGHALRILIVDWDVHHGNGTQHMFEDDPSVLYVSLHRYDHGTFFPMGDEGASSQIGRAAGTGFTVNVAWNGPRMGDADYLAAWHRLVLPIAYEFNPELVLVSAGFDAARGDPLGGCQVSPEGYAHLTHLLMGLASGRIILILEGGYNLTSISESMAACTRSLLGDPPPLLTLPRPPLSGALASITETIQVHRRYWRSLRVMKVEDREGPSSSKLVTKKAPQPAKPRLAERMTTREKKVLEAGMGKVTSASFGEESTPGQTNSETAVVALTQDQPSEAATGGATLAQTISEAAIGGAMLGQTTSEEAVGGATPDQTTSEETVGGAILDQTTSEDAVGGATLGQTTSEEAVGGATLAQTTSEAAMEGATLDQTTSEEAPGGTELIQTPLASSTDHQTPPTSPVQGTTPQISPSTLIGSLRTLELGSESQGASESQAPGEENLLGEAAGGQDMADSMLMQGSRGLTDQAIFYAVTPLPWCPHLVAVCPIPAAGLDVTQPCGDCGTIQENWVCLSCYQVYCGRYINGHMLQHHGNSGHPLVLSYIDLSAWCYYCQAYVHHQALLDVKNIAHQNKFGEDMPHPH

A549 [15] = test: Induction of apoptosis in human A549 cells assessed as live cells at 40 uM measured after 48 hrs by Annexin V-FITC/propidium iodide staining based FACSClibur flow cytometry analysis (reference value: 95.5 %); format: functional

SMILES: O=C(C[C@@H](CC1CCCC1)C(=O)N1CC2(CC2)C[C@H]1c1nc(-c2ccc(F)cc2C(F)(F)F)no1)NO
- selectivity ratio at 48 h [1]: 9
- inhibition in vivo at 25 mg/kg (HCT-116): 64%
- IC50 (Histone deacetylase 1): > 10000 nM
- Activity (A549 [2]): 5.55%
- selectivity ratio at 48 h [3]: 9
- AUC [4]: 940 ng·h/mL
- Activity (A549 [5]): 7.07%
- Activity [6]: Non-Toxic
- inhibition [7]: Dose-dependent effect
- Cmax [8]: 617 ng/mL
- inhibition [9]: Dose-dependent effect
- LD50 at 336 h [10]: 287 to 452 mg/kg
- Activity (A549 [11]): 87.8%
- IC50 [12]: 4.11 nM
- selectivity ratio at 48 h [13]: 9
- inhibition [14]: 0.41%
- Activity (A549 [15]): 80.9%
